{"source": "patent US7638284B2", "about": "“Immunoglobulin A inducing protein and uses therefor” (The Curators of the University of Missouri, priority 2000, dated 2009)", "key": {"IGIP mRNA": {"system": "IGIP mRNA", "experiment": "Taqman RT-PCR relative quantification of steady state IGIP mRNA in PMA stimulated cell subsets", "format": "cell-based, bovine", "conditions": "5 ng/ml PMA for 18 hours", "description": "Selective IgA deficiency (IgAD) is the most common primary immunodeficiency. […] To determine if abnormalities of IGIP production, function or cellular responsiveness to IGIP are altered in all or a subpopulation of patients with IgAD, a sampling approach is used to screen as many clinical and immunological types of adult subjects as possible for IGIP abnormalities. The relative contribution of PBMC-derived populations can be ranked based on quantitative PCR assessment of resting versus phorbol ester stimulated bovine cells; DC>B cells>T cells>monocytes (see Table VI below)."}, "sIgD+ B cells": {"system": "sIgD+ B cells", "experiment": "Bioassay for IGIP activity on naive human B cells (CD40L, IL-2, with or without IL-10; ELISA day 14)", "format": "cell-based", "protocol": "Total PBMC's were isolated from normal healthy donors via gradient centrifugation and labeled with biotinylated mouse monoclonal antibody (mAB) to human IgD. Pure sIgD^+ B cells were then isolated with Streptavidin-coated Microbeads using an AutoMACS magnetic cell sorter.\nEnriched sIgD^+ B cells were cultured in RPM1 1640 (supplemented with 10% FBS, 2 mM L-glutamine, 100 U/ml penicillin and 100 μg/ml streptomycin) at 0.8-1.0×10^5 cells/well in 96-well plates. B cells were co-cultured at a 4:1 ratio with mitomycin C treated DAP3 cells stably transfected with CD40L and 50 ng/ml IL-2, with or without 50 ng/ml IL-10. Cell cultures were then stimulated with 0.1, 1.0 or 10 ng/ml IGIP, 1.0 ng/ml TGF-β, or left unstimulated. Culture supernatants were assayed for secreted immunoglobulins (IgM, IgG, and IgA) by ELISA on day 14."}, "peripheral blood B cells": {"system": "peripheral blood B cells", "experiment": "Bovine B cell bioassay (CD40L-DAP3 cells + IL-2, 7 days) with ELISA for secreted IgA, IgM, IgG", "format": "cell-based", "procedure": "Peripheral blood mononuclear cells (PBMCs) were isolated from the peripheral blood of 6-12 month old Holstein or Angus heifers or steers by incubating 30 ml of red cell lysis buffer (0.15 NH4Cl, 10 mM KHCO3, 1 mM EDTA, H2O) with 20 ml of blood for 20 minutes at room temperature. During this incubation, carbonyl iron (0.1 μg/ml) was added to the blood mixture for 20 minutes and then exposed to a magnetic field for 2 minutes to remove phagocytic cells. Following incubation, the cells were washed 3 times with Hank's buffered salt solution (HBSS). B lymphocytes were enriched by panning in the presence of 3% bovine serum albumin (BSA, Fraction V, Sigma, St. Louis, Mo.) in HBSS as described in Severson et al. (1987). Briefly, PBMCs were resuspended at a concentration of 1×10^7 cells/ml in panning solution (3% BSA, 10 mM Tris, 50 μg/ml gentamicin, 0.0025 mM CaCl2, and 0.002 mM MgCl2 in HBSS) and allowed to adhere to plastic tissue culture plates for 1 hour. Non-adherent cells were removed by washing twice with HBSS and adherent cells (enriched B cells) were harvested by vigorous pipetting. 1×10^5 B cells and 2×10^4 mitomycin C treated CD40L-DAP3 transfected cells were cultured for 7 days in 96-well plates in 2001 μl final volume complete medium (RPMI 1640) and 10% immunoglobulin free normal horse serum with 1 ng/ml recombinant huIL-2 (Peppro Tech Inc., Rocky Hill, N.J.) and 10% culture supernatant from cells transfected with library plasmids. Where indicated, pre-committed B cells and residual T cells were depleted by incubating panned B cells for 30 minutes on ice with 30 μl each of mouse anti-bovine IGA (Serotec, Raleigh, N.C.), mouse anti-bovine IgG1 (Serotec), mouse anti-bovine IgG2 (Serotec), and MM1A (anti-CD3 antibody, VMRD, Pullman, Wash.). The cells were washed 3 times with HBSS and sheep anti-mouse IgG Dynabeads (Dynal, Oslow, Norway) were added according to the manufacturer's instructions. The B cells were then placed in a magnetic field and the non-adherent cells removed. These cells were next incubated on ice for 30 minutes with biotinylated goat anti-bovine IgM (Kirkegard and Perry (KPL), Gaithersburg, Md.), washed 3 times and streptavidin beads (Dynal) were added according to the manufacturer's instructions. The cells were placed on a magnetic field and the adherent cells (IgM^+ B cells) were harvested. All bioassays were performed in triplicate in 96-well Corning flat bottom plates.\nOther reagents used in these studies were goat anti-bovine IgM (5 μg/ml, KPL) and porcine TGF-β (1 ng/ml, R & D Systems, Minneapolis, Minn.) that had been acid-activated according to the manufacturer's instructions. […]"}, "[1]": {"conditions": "in the presence of IL-10, CD40L + IL-2, IGIP 0.1 to 10 ng/ml, TGF-β 1 ng/ml, 14 days"}}, "note": "Entries after “also recorded” stand apart in the source; their conditions may differ."}
{"compound": "CCCCCCCCCCCCCC(=O)O[C@@H]1[C@@H](C)[C@@]2(O)[C@@H](C=C(CO)C[C@]3(O)C(=O)C(C)=C[C@@H]23)[C@@H]2C(C)(C)[C@]12OC(C)=O", "note": "[PMA, phorbol myristic acetate]", "values": [{"measurement": "IGIP mRNA fold increase, stimulated vs unstimulated", "setting": "IGIP mRNA; CD3+ cells", "value": 2.03, "unit": "fold"}, {"measurement": "IGIP mRNA, relative quantification, stimulated cells", "setting": "IGIP mRNA; CD3+ cells", "value": "4.79 × 10^−5"}, {"measurement": "IGIP mRNA fold increase, stimulated vs unstimulated", "setting": "IGIP mRNA; CD14+ cells", "value": 0.64, "unit": "fold"}, {"measurement": "IGIP mRNA, relative quantification, stimulated cells", "setting": "IGIP mRNA; CD14+ cells", "value": "1.00 × 10^−5"}, {"measurement": "IGIP mRNA fold increase, stimulated vs unstimulated", "setting": "IGIP mRNA; CD21+ cells", "value": 7.6, "unit": "fold"}, {"measurement": "IGIP mRNA, relative quantification, stimulated cells", "setting": "IGIP mRNA; CD21+ cells", "value": "3.65 × 10^−4"}, {"measurement": "IGIP mRNA fold increase, stimulated vs unstimulated", "setting": "IGIP mRNA; DC", "value": 7205, "unit": "fold"}, {"measurement": "IGIP mRNA, relative quantification, stimulated cells", "setting": "IGIP mRNA; DC", "value": 0.263}]}
{"compound": "IGIP: human homolog of IGIP, 0.1 to 10 ng/ml on naive human IgD+ B cells (Example III) (MKKRSVSGCNITIFAVMFSHLSAGKSPCGNQANVLCISRLEFVQYQS)", "values": [{"measurement": "IgA production by naive IgD+ B cells (in words)", "setting": "sIgD+ B cells; IL-10, CD40L dependent, B-cell-receptor independent", "value": "enhanced IgA production"}, {"measurement": "number of IgA producing cells compared with TGF-β", "setting": "sIgD+ B cells; in the presence of IL-10", "value": "greater number of IgA producing cells"}, {"measurement": "IgA production, level relative to TGF-β", "setting": "sIgD+ B cells; [1]", "value": "4-6 fold"}, {"measurement": "IgG production, level relative to TGF-β", "setting": "sIgD+ B cells; [1]", "value": "4-6 fold"}, {"measurement": "IgM production, level relative to TGF-β", "setting": "sIgD+ B cells; [1]", "value": "4-6 fold"}]}
{"compound": "TGF-β: porcine TGF-β (1 ng/ml, R & D Systems), acid-activated", "values": [{"measurement": "effect on IgA production (in words)", "setting": "peripheral blood B cells; B cells stimulated via CD40L + IL-2 (CD40 alone)", "value": "less IgA production; also recorded: decreased IgA production"}, {"measurement": "effect on IgA production (in words)", "setting": "peripheral blood B cells; B cells stimulated via CD40 and anti-IgM (BCR)", "value": "induced IgA production"}, {"measurement": "IgA production over that of B cells stimulated via CD40L + anti-IgM + IL-2 alone", "setting": "peripheral blood B cells; Table IV experiment 2, dual stimulation CD40 and BCR", "value": 10, "unit": "fold"}]}
